The record followed here is patent US10155753B2, “4-substituted-2-(5-substituted-1H-indol-2-yl)phenol derivatives, methods for preparing the phenol derivatives and pharmaceutical compositions for inhibiting cell proliferation and migration including the phenol derivatives” (KOREA UNIVERSITY RESEARCH AND BUSINESS FOUNDATION, priority 2015, dated 2018).

Each structure is given as a SMILES string.

The subject of assay [1] is YANK-expressed cells (STK32C/MCF7 cell). The assay is described as follows: Inhibition of cell proliferation (MCF7, STK32C/MCF7 cells, 96-well, read at 450 nm). It counts as cell-based. The following applies: 24 h after addition of compound; FIGS. 3 to 6. As for the experimental part: MCF7, STK32C/MCF7 cell (1×10^4/well) culture was plated in each well of a 96-well plate until it reached a final volume of 100 μl. After 24 h, the compounds at given concentrations were added. 24 h after the addition, 10 μl of an analytical reagent was plated in each well without bubbling. The reaction was allowed to proceed under basic culture conditions for 30 min to 1 h and the inhibitions of cell proliferation were measured at 450 nm.
FIGS. 3 to 6 show concentration-dependent inhibitions of proliferation of the YANK-expressed cells by treatment with the phenol derivatives of Formulae 7, 9, 13, and 32 (corresponding to Compound 34 in FIG. 2), respectively.

Assay [2] addresses T1, YANK3 (Homo sapiens, UniProt Q86UX6).
T1 construct: expressed in transfected cells; host or cells: MCF7 cells, Lipofectamine transfection, anti-HA immunoprecipitation
The assay can be described thus: In vitro kinase assay: inhibition of YANK3 phosphorylation (IP kinase, [γ-32P]ATP, autoradiography). It counts as biochemical. Set-up: dose or concentration left out as unconfirmed. The following applies: MCF7 cells treated with each compound at 37° C. for 1 h; anti-HA IP, kinase reaction 30° C. 30 min. As for the experimental part: Transduction was performed to overexpress YANK3-HA and YB1-HA genes in cells. Lipofectamine reagent (Invitrogen) was used for gene introgression. When cells were grown to a confluency of 60% in a culture dish, human YANK3-HA and YB1-HA genes were introduced into MCF7 cells. After 48 h, the gene-transfected cells were used for experiments. All cultured cells were harvested, lysed in a lysis buffer (1×RIPA buffer 1 mL, 1 mM PMSF, 1 mg/mL aprotinin, 1 mg/mL leupeptin, 2 mM DTT) for 30 min, and centrifuged at 15,000 rpm and 4° C. for 30 min. The supernatant was collected and its total protein content was quantified by the Bradford method. After YB1-HA gene introgression, the MCF7 cells were treated with each compound […] at 37° C. for 1 h. 1 μg of anti-HA antibody was cultured with […] of protein at 4° C. for 15 h, 20 μL of protein A/G-Sepharose was added thereto, followed by culture for another 2 h. The culture was centrifuged to precipitate the protein A/G-Sepharose, washed with IP kinase buffer (50 mM HEPES, pH 7.5, 10 mM MgCl2, 1 mM dithiothreitol, 2.5 mM EGTA, 1 mM NaF, 0.1 mM Na3VO4), and sufficiently mixed with 20 μL of IP kinase buffer. The kinase reaction was initiated by the addition of […] of [γ-^32P]ATP to 40 μL of IP kinase buffer. The reaction was allowed to proceed at 30° C. for 30 min. After addition of 5 μL of 2×SDS sample buffer, the reaction was quenched by boiling for 5 min, which was confirmed by SDS-PAGE electrophoresis and autoradiography.

T1 sequence (Q86UX6 whole entry): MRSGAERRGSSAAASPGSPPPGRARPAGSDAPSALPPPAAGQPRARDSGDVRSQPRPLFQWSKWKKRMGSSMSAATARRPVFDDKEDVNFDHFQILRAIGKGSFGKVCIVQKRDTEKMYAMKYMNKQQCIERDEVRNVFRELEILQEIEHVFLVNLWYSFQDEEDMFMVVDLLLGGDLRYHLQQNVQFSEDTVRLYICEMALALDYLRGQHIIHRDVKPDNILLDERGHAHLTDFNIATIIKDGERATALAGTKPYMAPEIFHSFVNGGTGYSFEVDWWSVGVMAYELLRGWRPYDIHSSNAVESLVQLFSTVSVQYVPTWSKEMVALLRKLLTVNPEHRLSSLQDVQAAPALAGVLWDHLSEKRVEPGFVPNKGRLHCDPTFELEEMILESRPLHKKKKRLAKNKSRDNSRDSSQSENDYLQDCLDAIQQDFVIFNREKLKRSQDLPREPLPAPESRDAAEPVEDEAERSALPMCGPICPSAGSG

On to `N=C(N)c1ccc2[nH]c(-c3cc(-c4ccc(Cl)cc4)ccc3O)cc2c1` [Compound 32, 2-(4′-Chloro-4-hydroxybiphenyl-3-yl)-1H-indole-5-carboximidamide], for which, in assay [1], the “concentration-dependent inhibition of proliferation of YANK-expressed cells” value (“concentration-dependent inhibition” below) is “inhibited the proliferation of the YANK-expressed cells with high efficacy with increasing concentration”. For the same molecule, the “Inhibition, % (inhibitions (%) of YANK3 phosphorylation)” value (from here on “Inhibition, %”) in assay [2] came out at 65%.

In the case of `N=C(N)c1ccc2[nH]c(-c3cc(-c4cccs4)ccc3O)cc2c1` [Compound 33, 2-(2-Hydroxy-5-(thiophen-2-yl)phenyl)-1H-indole-5-carboximidamide], the “Inhibition, %” value in assay [2] stood at 30%.

With `Oc1ccc(Br)cc1-c1cc2cc(F)ccc2[nH]1` [Formula 7, 4-Bromo-2-(5-fluoro-1H-indol-2-yl)phenol], in assay [1], the “concentration-dependent inhibition” value is reported as “inhibited the proliferation of the YANK-expressed cells with high efficacy with increasing concentration”. The “Inhibition, %” value in assay [2] is on record as 74%.

Regarding `N#Cc1ccc2[nH]c(-c3cc(Br)ccc3O)cc2c1` [Formula 9, 2-(5-Bromo-2-hydroxyphenyl)-1H-indole-5-carbonitrile], the “concentration-dependent inhibition” value in assay [1] is recorded as “inhibited the proliferation of the YANK-expressed cells with high efficacy with increasing concentration”. Further, in assay [2], the “Inhibition, %” value is on record as 144%.

Turning to `COc1ccc(-c2ccc(O)c(-c3cc4ccccc4[nH]3)c2)cc1` [Formula 11, 3-(1H-Indol-2-yl)-4′-methoxybiphenyl-4-ol], the “Inhibition, %” value in assay [2] was determined as 163%.

With `Oc1ccc(-c2ccc(Cl)cc2)cc1-c1cc2cc(F)ccc2[nH]1` [Formula 13], the “concentration-dependent inhibition” value in assay [1] is recorded as “inhibited the proliferation of the YANK-expressed cells with high efficacy with increasing concentration”. Further, the “Inhibition, %” value in assay [2] worked out at 93%.

Consider `Oc1ccc(-c2ccc(Cl)cc2)cc1-c1cc2cc(Cl)ccc2[nH]1` [Formula 16, 4′-Chloro-3-(5-chloro-1H-indol-2-yl)biphenyl-4-ol], for which the “Inhibition, %” value in assay [2] is 125%.
